Common to all, as to type: cell-based
Test [1] deals with T1, human glucagon R (Homo sapiens, UniProt P47871).
T1 construct: expressed in transfected cells; host or cells: CHO-K1 (CRE-LUC/CHO-K1), plasmid hGlucagonR/pMSRα-neo
The experiment in a line: Agonist activity against human glucagon R, CRE-luciferase reporter assay in hGlucagonR/CRE-LUC/CHO-K1 cells. An excerpt: (§1) Evaluation of agonist activity against human GIPR, human GLP-1R and human glucagon R using rise in intracellular cAMP concentration as index
(§2) The luciferase reporter gene having an upstream cAMP response sequence was introduced to CHO-K1 cells to construct CRE-LUC/CHO-K1 cells.
The human glucagon R gene having a sequence identical to the sequence of GenBank Accession No. NM_000160 was cloned into pMSRα-neo vector to prepare hGlucagonR/pMSRα-neo.
The plasmid hGlucagonR/pMSRα-neo obtained in (7) was introduced to the CRE-LUC/CHO-K1 cells obtained in (2) to obtain transformants. Next, a cell line induced to express luciferase, i.e., hGlucagonR/CRE-LUC/CHO-K1 cells, were selected from the obtained transformants by the addition of glucagon.
(§3) The hGIPR/CRE-LUC/CHO-K1 cells were inoculated at a cell density of 25 μL/well (5×10^4 cells/well) to a 384-well white plate (Corning), and cultured overnight in Ham F12 medium containing 10% fetal bovine serum, 100 U/mL penicillin and 100 μg/mL streptomycin in a CO2 incubator of 37° C. A medium containing a test compound was added at a concentration of 5 μL/well to the cells, and the resultant cells were incubated for 4 hours in a CO2 incubator of 37° C. to give the final concentration of 1 μM. PicaGene LT7.5 (Toyo Ink Co., Ltd.) was added thereto at a concentration of 30 μL/well, and the mixture was shaken with light shielded. After 30 minutes, the luciferase activity was measured using a plate reader Envision (PerkinElmer). The luciferase activity in the presence of 10 nM GIP was defined as 100%, and the luciferase activity from the addition of DMSO instead of the test compound was defined as 0%. The GIPR agonist activity was calculated with a rise in intracellular cAMP concentration as an index.
The glucagon R agonist activity was assayed in the same way as above using the hGlucagonR/CRE-LUC/CHO-K1 cells. The luciferase activity in the presence of 10 nM glucagon was defined as 100%, and the luciferase activity from the addition of DMSO instead of the test compound was defined as 0%. The glucagon agonist activity was calculated with a rise in intracellular cAMP concentration as an index.

For test [2], the target named is T2, human GIPR (Homo sapiens, UniProt P48546).
T2 construct: expressed in transfected cells; host or cells: CHO-K1 (CRE-LUC/CHO-K1), plasmid hGIPR/pMSRα-neo
T2 sequence (P48546 22-466): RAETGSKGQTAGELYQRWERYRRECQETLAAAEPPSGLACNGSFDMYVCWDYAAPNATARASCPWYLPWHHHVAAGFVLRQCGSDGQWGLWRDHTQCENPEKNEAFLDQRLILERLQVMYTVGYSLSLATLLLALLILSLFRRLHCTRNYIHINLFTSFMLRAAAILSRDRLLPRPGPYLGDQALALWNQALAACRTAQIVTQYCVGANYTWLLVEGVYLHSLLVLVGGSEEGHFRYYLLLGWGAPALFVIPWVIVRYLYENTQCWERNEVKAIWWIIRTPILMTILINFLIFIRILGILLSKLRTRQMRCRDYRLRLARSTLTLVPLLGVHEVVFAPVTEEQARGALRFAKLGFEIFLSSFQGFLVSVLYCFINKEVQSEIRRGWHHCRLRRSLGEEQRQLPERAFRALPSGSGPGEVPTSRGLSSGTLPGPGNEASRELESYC
Put plainly: Agonist activity against human GIPR, CRE-luciferase reporter assay (rise in intracellular cAMP) in hGIPR/CRE-LUC/CHO-K1 cells.
Source text: as §1
The human GIPR gene having a sequence identical to the sequence of GenBank Accession No. U39231 was cloned into pMSRα-neo vector to prepare hGIPR/pMSRα-neo.
as §2
The plasmid hGIPR/pMSRα-neo obtained in (1) was introduced to the CRE-LUC/CHO-K1 cells obtained in (2) to obtain transformants. Next, a cell line induced to express luciferase, i.e., hGIPR/CRE-LUC/CHO-K1 cells, were selected from the obtained transformants by the addition of GIP.
as §3
In general terms: In a reporter assay the amount or activity of a reporter protein is the signal.

Test [3] deals with T3, human GLP-1R (Homo sapiens, UniProt P43220).
T3 construct: expressed in transfected cells; host or cells: CHO-K1, plasmids hGLP-1/pIRESneo3 and Cre-luc(Zeo)
T3 sequence (P43220 24-463): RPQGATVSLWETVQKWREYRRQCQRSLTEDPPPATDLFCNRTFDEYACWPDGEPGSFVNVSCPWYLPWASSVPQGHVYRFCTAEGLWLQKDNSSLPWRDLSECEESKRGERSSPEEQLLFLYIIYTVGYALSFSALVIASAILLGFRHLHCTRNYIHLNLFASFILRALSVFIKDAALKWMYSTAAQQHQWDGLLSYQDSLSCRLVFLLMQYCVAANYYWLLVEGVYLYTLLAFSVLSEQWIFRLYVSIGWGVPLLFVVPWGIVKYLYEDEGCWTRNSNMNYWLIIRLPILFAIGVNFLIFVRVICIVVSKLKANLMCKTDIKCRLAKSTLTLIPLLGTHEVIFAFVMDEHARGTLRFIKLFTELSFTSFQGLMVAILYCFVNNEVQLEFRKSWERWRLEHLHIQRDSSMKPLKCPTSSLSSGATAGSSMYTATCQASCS
Put plainly: Agonist activity against human GLP-1R, CRE-luciferase reporter assay in hGLP-1R/CRE-luc/CHO-K1 cells.
Source text: as §1
Four copies of the cAMP response sequence and the Zeocin resistance gene were introduced to pGL3(R2.2)-Basic Vector (Promega) to construct Cre-luc(Zeo) reporter plasmid.
The human GLP-1R gene having a sequence identical to the sequence of GenBank Accession No. NM_002062 was cloned into pIRESneo3 vector to prepare hGLP-1/pIRESneo3.
The Cre-luc(Zeo) obtained in (3) and the plasmid hGLP-1/pIRESneo3 obtained in (5) were introduced to CHO-K1 cells to obtain transformants. Next, a cell line induced to express luciferase, i.e., hGLP-1R/CRE-luc/CHO-K1 cells, were selected from the obtained transformants by the addition of GLP-1.
as §3
The GLP-1R agonist activity was assayed in the same way as above using the hGLP-1R/CRE-luc/CHO-K1 cells. The luciferase activity in the presence of 10 nM GLP-1 was defined as 100%, and the luciferase activity from the addition of DMSO instead of the test compound was defined as 0%. The GLP-1R agonist activity was calculated with a rise in intracellular cAMP concentration as an index.

Setting [4] is: hGlucagonR/CRE-LUC/CHO-K1 cells, 4 hours incubation, 10 nM glucagon = 100%, read-out: Agonist activity (EC50) hGCGR.
The mark [5] stands for this setting: hGIPR/CRE-LUC/CHO-K1 cells, 4 hours incubation, 10 nM GIP = 100%, read-out: Agonist activity (EC50) hGIPR.
The mark [6] stands for this setting: hGLP-1R/CRE-luc/CHO-K1 cells, 4 hours incubation, 10 nM GLP-1 = 100%, read-out: Agonist activity (EC50) hGLP-1R.

Read-outs that look alike come from different tables or passages of the source. Square brackets hold non-standard residues; d marks the D form. Peptide text beside a SMILES is read from it. * marks the point of attachment. αMeF = C[C@](N)(Cc1ccccc1)C(=O)O; Isonicotinoyl = O=C(c1ccncc1)*; Aib = CC(C)(N)C(=O)O

T1 sequence (P47871 26-477): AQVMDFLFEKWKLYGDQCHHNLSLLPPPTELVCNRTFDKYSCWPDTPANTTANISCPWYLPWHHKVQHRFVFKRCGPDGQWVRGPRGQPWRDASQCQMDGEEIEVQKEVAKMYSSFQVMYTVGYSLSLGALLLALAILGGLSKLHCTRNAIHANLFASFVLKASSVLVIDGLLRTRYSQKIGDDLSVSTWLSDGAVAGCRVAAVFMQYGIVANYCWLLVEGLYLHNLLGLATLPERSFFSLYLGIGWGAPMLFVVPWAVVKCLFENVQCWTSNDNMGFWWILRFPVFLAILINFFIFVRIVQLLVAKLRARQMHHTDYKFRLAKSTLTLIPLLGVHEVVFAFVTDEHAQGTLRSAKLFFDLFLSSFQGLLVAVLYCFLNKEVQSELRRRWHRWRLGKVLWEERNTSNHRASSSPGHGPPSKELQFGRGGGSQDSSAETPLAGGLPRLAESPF

Regarding `CC[C@H](C)[C@H](NC(=O)C(C)(C)NC(=O)[C@H](Cc1ccc(O)cc1)NC(=O)[C@H](CC(=O)O)NC(=O)[C@H](CO)NC(=O)[C@@H](NC(=O)[C@](C)(Cc1ccccc1)NC(=O)[C@@H](NC(=O)CNC(=O)[C@H](CCC(=O)O)NC(=O)C(C)(C)NC(=O)[C@H](Cc1ccc(O)cc1)NC(=O)c1ccncc1)[C@@H](C)O)[C@@H](C)O)C(=O)NC(C)(C)C(=O)N[C@@H](CC(C)C)C(=O)N[C@@H](CC(=O)O)C(=O)N[C@@H](CCCCN)C(=O)N[C@@H](CCC(N)=O)C(=O)N[C@@H](C)C(=O)N[C@@H](CCC(N)=O)C(=O)N[C@@H](C)C(=O)N[C@@H](CCC(=O)O)C(=O)N[C@@H](Cc1ccccc1)C(=O)N[C@H](C(=O)N[C@@H](CCCCN)C(=O)N[C@@H](Cc1c[nH]c2ccccc12)C(=O)N[C@@H](CC(C)C)C(=O)N[C@@H](CC(C)C)C(=O)N[C@@H](CCCCN)C(=O)NCC(=O)NCC(=O)N1CCC[C@H]1C(=O)N[C@@H](CO)C(=O)N[C@@H](CO)C(=O)NCC(=O)N[C@@H](C)C(=O)N1CCC[C@H]1C(=O)N1CCC[C@H]1C(=O)N1CCC[C@H]1C(=O)N[C@@H](CO)C(=O)N[C@@H](CCCCN)C(N)=O)C(C)C` [Example 20] (Isonicotinoyl-Y[Aib]EGT[αMeF]TSDY[Aib]I[Aib]LDKQAQAEFVKWLLKGGPSSGAPPPSK-NH2), the concentration giving a half-maximal response (EC50) (usually the concentration giving half of the maximal effect) in test [1] (setting [4]) was > 1000 nM; in test [2] (setting [5]) it was 0.026 nM; in test [3] (setting [6]), 0.13 nM.
`CC[C@H](C)[C@H](NC(=O)[C@H](C)NC(=O)[C@H](Cc1ccc(O)cc1)NC(=O)[C@H](CC(=O)O)NC(=O)[C@H](CO)NC(=O)[C@@H](NC(=O)[C@](C)(Cc1ccccc1)NC(=O)[C@@H](NC(=O)CNC(=O)[C@H](CCC(=O)O)NC(=O)C(C)(C)NC(=O)[C@@H](N)Cc1ccc(O)cc1)[C@@H](C)O)[C@@H](C)O)C(=O)NC(C)(C)C(=O)N[C@@H](CC(C)C)C(=O)N[C@@H](CC(=O)O)C(=O)N[C@@H](CCCCN)C(=O)N[C@@H](CCC(N)=O)C(=O)N[C@@H](C)C(=O)N[C@@H](CCC(N)=O)C(=O)N[C@@H](CO)C(=O)N[C@@H](CCC(=O)O)C(=O)N[C@@H](Cc1ccccc1)C(=O)N[C@H](C(=O)N[C@@H](CCCCN)C(=O)N[C@@H](Cc1c[nH]c2ccccc12)C(=O)N[C@@H](CC(C)C)C(=O)N[C@@H](CC(C)C)C(=O)N[C@@H](CCCCN)C(=O)NCC(=O)NCC(=O)N1CCC[C@H]1C(=O)N[C@@H](CO)C(=O)N[C@@H](CO)C(=O)NCC(=O)N[C@@H](C)C(=O)N1CCC[C@H]1C(=O)N1CCC[C@H]1C(=O)N1CCC[C@H]1C(=O)N[C@@H](CO)C(N)=O)C(C)C` [Example 7] (H-Y[Aib]EGT[αMeF]TSDYAI[Aib]LDKQAQSEFVKWLLKGGPSSGAPPPS-NH2): the EC50 in test [1] (setting [4]) was > 1000 nM; in test [2] (setting [5]) it was 0.0069 nM; in test [3] (setting [6]), 0.0088 nM.
In the same order, the values of `CC[C@H](C)[C@H](NC(=O)C(C)(C)NC(=O)[C@H](Cc1ccc(O)cc1)NC(=O)[C@H](CC(=O)O)NC(=O)[C@H](CO)NC(=O)[C@@H](NC(=O)[C@](C)(Cc1ccccc1)NC(=O)[C@@H](NC(=O)CNC(=O)[C@H](CCC(=O)O)NC(=O)C(C)(C)NC(=O)[C@H](Cc1ccc(O)cc1)NC(C)=O)[C@@H](C)O)[C@@H](C)O)C(=O)NC(C)(C)C(=O)N[C@@H](CC(C)C)C(=O)N[C@@H](CC(=O)O)C(=O)N[C@@H](CCCCN)C(=O)N[C@@H](CCC(N)=O)C(=O)N[C@@H](C)C(=O)N[C@@H](CCC(N)=O)C(=O)N[C@@H](C)C(=O)N[C@@H](CCC(=O)O)C(=O)N[C@@H](Cc1ccccc1)C(=O)N[C@H](C(=O)N[C@@H](CCCCN)C(=O)N[C@@H](Cc1c[nH]c2ccccc12)C(=O)N[C@@H](CC(C)C)C(=O)N[C@@H](CC(C)C)C(=O)N[C@@H](CCCCN)C(=O)NCC(=O)NCC(=O)N1CCC[C@H]1C(=O)N[C@@H](CO)C(=O)N[C@@H](CO)C(=O)NCC(=O)N[C@@H](C)C(=O)N1CCC[C@H]1C(=O)N1CCC[C@H]1C(=O)N1CCC[C@H]1C(=O)N[C@@H](CO)C(=O)N[C@@H](CCCCN)C(N)=O)C(C)C` [Example 18] (Ac-Y[Aib]EGT[αMeF]TSDY[Aib]I[Aib]LDKQAQAEFVKWLLKGGPSSGAPPPSK-NH2) are > 1000 nM, 0.027 nM and 0.13 nM.
For `CC(C)C[C@H](NC(=O)[C@H](CC(C)C)NC(=O)[C@H](Cc1c[nH]c2ccccc12)NC(=O)[C@H](CCCCN)NC(=O)[C@@H](NC(=O)[C@H](Cc1ccccc1)NC(=O)[C@H](CCC(=O)O)NC(=O)[C@H](C)NC(=O)[C@H](CCC(N)=O)NC(=O)[C@H](C)NC(=O)[C@H](CCC(N)=O)NC(=O)[C@H](CCCCN)NC(=O)[C@H](CC(=O)O)NC(=O)[C@H](CC(C)C)NC(=O)C(C)(C)NC(=O)[C@H](CCCCN)NC(=O)C(C)(C)NC(=O)[C@H](Cc1ccc(O)cc1)NC(=O)[C@H](CC(=O)O)NC(=O)[C@H](CO)NC(=O)[C@@H](NC(=O)[C@](C)(Cc1ccccc1)NC(=O)[C@@H](NC(=O)CNC(=O)[C@H](CCC(=O)O)NC(=O)C(C)(C)NC(=O)[C@@H](N)Cc1ccc(O)cc1)[C@@H](C)O)[C@@H](C)O)C(C)C)C(=O)N[C@@H](CCCCN)C(=O)NCC(=O)NCC(=O)N1CCC[C@H]1C(=O)N[C@@H](CO)C(=O)N[C@@H](CO)C(=O)NCC(=O)N[C@@H](C)C(=O)N1CCC[C@H]1C(=O)N1CCC[C@H]1C(=O)N1CCC[C@H]1C(=O)N[C@@H](CO)C(=O)N[C@@H](CCCCN)C(N)=O` [Example 9] (H-Y[Aib]EGT[αMeF]TSDY[Aib]K[Aib]LDKQAQAEFVKWLLKGGPSSGAPPPSK-NH2), the EC50 in test [1] is > 1000 nM; in test [2], 0.008 nM; in test [3], 0.015 nM.

Source of the values: US9200051B2, “Peptide compound” (TAKEDA PHARMACEUTICAL COMPANY LIMITED, priority 2013, dated 2015).
